According to US12139520B2 (priority 2020, dated 2024):
Numbered stars: 1 amine (or outer) side, 2 acyl side, 3 side chain; on linkers, the order of the positions; unused ones are H or OH. Bridge positions count the residues as written; N and C are the ends. Square brackets hold non-standard residues; d marks the D form. Side chains are listed from the residue outwards. Peptide text beside a SMILES is read from it. * marks the point of attachment. C20 diacid = O=C(O)CCCCCCCCCCCCCCCCCCC(=O)*; γGlu = O=C(O)[C@H](CCC(=O)[*:2])N[*:1]; Hyp = O=C(O)[C@@H]1C[C@@H](O)CN1; AEEA = NCCOCCOCC(=O)O

What was measured:
[1] = biological target: T1, hAMY3 receptor (Homo sapiens, UniProt O60896+P30988); assay: cAMP assay for in vitro receptor activation, hAMY3-R; type: cell-based; details: cAMP assay, hAMY3 receptor; read-out: hAMY3R EC50
T1 sequence (P30988 25-474): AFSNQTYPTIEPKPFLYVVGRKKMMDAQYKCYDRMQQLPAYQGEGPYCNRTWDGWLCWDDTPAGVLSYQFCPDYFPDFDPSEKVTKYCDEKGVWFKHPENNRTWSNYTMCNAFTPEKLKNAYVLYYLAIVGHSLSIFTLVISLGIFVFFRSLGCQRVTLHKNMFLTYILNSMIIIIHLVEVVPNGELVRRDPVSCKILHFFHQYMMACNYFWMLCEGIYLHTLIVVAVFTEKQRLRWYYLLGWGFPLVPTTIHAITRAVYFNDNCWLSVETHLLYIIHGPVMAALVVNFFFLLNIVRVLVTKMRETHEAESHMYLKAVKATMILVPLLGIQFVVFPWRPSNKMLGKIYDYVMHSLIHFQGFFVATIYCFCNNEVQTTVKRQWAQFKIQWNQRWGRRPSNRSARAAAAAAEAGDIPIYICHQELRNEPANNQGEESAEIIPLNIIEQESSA
T1 sequence (O60896 24-148 partner): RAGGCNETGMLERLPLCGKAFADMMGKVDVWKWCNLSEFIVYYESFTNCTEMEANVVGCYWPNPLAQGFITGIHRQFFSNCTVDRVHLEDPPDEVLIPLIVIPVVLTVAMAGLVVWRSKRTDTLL
How it was run: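 Read-out is TR-FRET cAMP signal, recorded one hour after reagent addition, following 30 min room-temperature stimulation of stable hAMY3 cells with graded compound doses in casein/IBMX (0.5 mM) buffer.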

[2] = biological target: hAM1 receptor (Homo sapiens, UniProt O60895+Q16602); assay: cAMP assay for in vitro receptor activation, hAM1-R; type: cell-based; details: cAMP assay, hAM1 receptor; read-out: hAM1R EC50
hAM1 receptor, sequence (Q16602 23-461): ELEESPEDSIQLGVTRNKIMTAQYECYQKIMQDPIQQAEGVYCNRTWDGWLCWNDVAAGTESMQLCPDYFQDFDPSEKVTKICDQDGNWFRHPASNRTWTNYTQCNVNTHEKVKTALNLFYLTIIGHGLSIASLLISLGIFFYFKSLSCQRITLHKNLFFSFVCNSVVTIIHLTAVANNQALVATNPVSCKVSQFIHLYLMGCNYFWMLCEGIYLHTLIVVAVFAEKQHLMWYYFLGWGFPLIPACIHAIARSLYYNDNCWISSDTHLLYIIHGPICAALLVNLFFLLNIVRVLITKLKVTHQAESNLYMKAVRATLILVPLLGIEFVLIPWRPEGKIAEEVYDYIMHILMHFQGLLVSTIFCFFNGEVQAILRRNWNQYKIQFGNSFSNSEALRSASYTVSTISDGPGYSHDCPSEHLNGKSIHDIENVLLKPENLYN
hAM1 receptor, sequence (O60895 43-175 partner): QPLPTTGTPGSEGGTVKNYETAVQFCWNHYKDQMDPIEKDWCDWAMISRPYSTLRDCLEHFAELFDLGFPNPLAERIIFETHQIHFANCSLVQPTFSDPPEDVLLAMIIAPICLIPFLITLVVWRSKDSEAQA
Experimental: General Protocols for cAMP Assays for Measuring In Vitro Receptor Activation
Cells stably overexpressing the hAM1 receptor were obtained from Ogeda (now Astellas Pharma), sub-cloned and a monoclonal cell-line with an appropriate assay-window was expanded, aliquoted and frozen. An aliquot was thawed and plated in DPBS with 0.05% casein and 0.5 mM IBMX as 8000 cells/well in a 384-well format.

EC50 [1] [nM]	EC50 [2] [nM]	Compound
0.007	> 5000	CC[C@H](C)[C@H](NC(=O)[C@H](CCC(N)=O)NC(=O)[C@H](CC(=O)O)NC(=O)[C@H](C)NC(=O)[C@H](CC(C)C)NC(=O)[C@H](CCCNC(=N)N)NC(=O)[C@H](C)NC(=O)[C@@H](NC(=O)[C@@H](NC(=O)[C@@H]1CSSC[C@H](NC(=O)[C@@H](N)CCCCN)C(=O)N[C@@H](CC(N)=O)C(=O)N[C@@H]([C@@H](C)O)C(=O)N[C@@H](CO)C(=O)N[C@@H]([C@@H](C)O)C(=O)N1)[C@@H](C)O)C(C)C)C(=O)N[C@H](C(=O)N[C@@H](CCC(N)=O)C(=O)N[C@@H](Cc1ccccc1)C(=O)N[C@@H](CO)C(=O)N[C@@H](CC(=O)O)C(=O)N[C@@H](CCCCN)C(=O)N[C@@H](CC(=O)O)C(=O)N[C@@H](CCCCN)C(=O)N[C@@H](C)C(=O)N[C@@H](CC(N)=O)C(=O)N[C@H](C(=O)N[C@@H](CO)C(=O)N1CCC[C@H]1C(=O)N1CCC[C@H]1C(=O)N[C@H](C(=O)N[C@@H](CCC(=O)O)C(=O)N[C@H](C(=O)NCC(=O)N1CCC[C@H]1C(=O)N[C@@H](CC(N)=O)C(=O)N[C@@H](CO)C(=O)N1C[C@H](O)C[C@H]1C(N)=O)C(C)C)[C@@H](C)O)C(C)C)[C@@H](C)O [compound 15] (H-KCNTSTCTVARLADQITQFSDKDKANVSPPTEVGPNS[Hyp]-NH2; disulfide 2-7; N-terminus assumed)
0.013	> 5000	CC[C@H](C)[C@H](NC(=O)[C@H](CCC(N)=O)NC(=O)[C@H](Cc1c[nH]cn1)NC(=O)[C@H](C)NC(=O)[C@H](CC(C)C)NC(=O)[C@H](CCCNC(=N)N)NC(=O)[C@H](CCC(N)=O)NC(=O)[C@@H](NC(=O)[C@@H](NC(=O)[C@@H]1CSSC[C@H](NC(=O)[C@@H](N)CCCCN)C(=O)N[C@@H](CC(N)=O)C(=O)N[C@@H]([C@@H](C)O)C(=O)N[C@@H](C)C(=O)N[C@@H]([C@@H](C)O)C(=O)N1)[C@@H](C)O)C(C)C)C(=O)N[C@@H](Cc1ccc(O)cc1)C(=O)N[C@@H](CCC(N)=O)C(=O)N[C@@H](Cc1ccccc1)C(=O)N[C@H](C(=O)N[C@@H](CC(=O)O)C(=O)N[C@@H](CCCCN)C(=O)N[C@@H](CC(=O)O)C(=O)N[C@@H](CCCCN)C(=O)N[C@@H](CC(=O)O)C(=O)N[C@@H](CC(N)=O)C(=O)N[C@H](C(=O)N[C@@H](C)C(=O)N1CCC[C@H]1C(=O)N1CCC[C@H]1C(=O)N[C@H](C(=O)N[C@@H](CC(N)=O)C(=O)N[C@H](C(=O)NCC(=O)N[C@@H](CO)C(=O)N[C@@H](CC(N)=O)C(=O)NCC(=O)N1C[C@H](O)C[C@H]1C(N)=O)C(C)C)[C@@H](C)O)C(C)C)[C@@H](C)O [compound 75] (H-KCNTATCTVQRLAHQIYQFTDKDKDNVAPPTNVGSNG[Hyp]-NH2; disulfide 2-7; N-terminus assumed)
0.048	> 5000	CC[C@H](C)[C@H](NC(=O)[C@H](CCC(N)=O)NC(=O)[C@H](Cc1c[nH]cn1)NC(=O)[C@H](C)NC(=O)[C@H](CC(C)C)NC(=O)[C@H](CCCNC(=N)N)NC(=O)[C@@H](NC(=O)[C@@H](NC(=O)[C@@H](NC(=O)[C@@H]1CSSC[C@H](NC(=O)[C@H](CCCCN)NC(=O)CC[C@H](NC(=O)CCCCCCCCCCCCCCCCCCC(=O)O)C(=O)O)C(=O)N[C@@H](CC(N)=O)C(=O)N[C@@H]([C@@H](C)O)C(=O)N[C@@H](C)C(=O)N[C@@H]([C@@H](C)O)C(=O)N1)[C@@H](C)O)C(C)C)[C@@H](C)CC)C(=O)N[C@@H](Cc1ccc(O)cc1)C(=O)N[C@@H](CCC(N)=O)C(=O)N[C@@H](Cc1ccccc1)C(=O)N[C@H](C(=O)N[C@@H](CC(=O)O)C(=O)N[C@@H](CCCCN)C(=O)N[C@@H](CC(=O)O)C(=O)N[C@@H](CCCCN)C(=O)N[C@@H](CC(=O)O)C(=O)N[C@@H](CC(N)=O)C(=O)N[C@H](C(=O)N[C@@H](C)C(=O)N1CCC[C@H]1C(=O)N1CCC[C@H]1C(=O)N[C@H](C(=O)N[C@@H](CC(N)=O)C(=O)N[C@H](C(=O)NCC(=O)N[C@@H](CO)C(=O)N[C@@H](CC(N)=O)C(=O)NCC(=O)N1C[C@H](O)C[C@H]1C(N)=O)C(C)C)[C@@H](C)O)C(C)C)[C@@H](C)O [compound 159] ({C20 diacid-γGlu}-KCNTATCTVIRLAHQIYQFTDKDKDNVAPPTNVGSNG[Hyp]-NH2; disulfide 2-7)
0.033	> 5000	CC[C@H](C)[C@H](NC(=O)[C@H](CCC(N)=O)NC(=O)[C@H](CCC(=O)O)NC(=O)[C@H](C)NC(=O)[C@H](CC(C)C)NC(=O)[C@H](CCCNC(=N)N)NC(=O)[C@H](CCC(N)=O)NC(=O)[C@@H](NC(=O)[C@@H](NC(=O)[C@@H]1CSSC[C@H](NC(=O)[C@@H](N)CCCCN)C(=O)N[C@@H](CC(N)=O)C(=O)N[C@@H]([C@@H](C)O)C(=O)N[C@@H](C)C(=O)N[C@@H]([C@@H](C)O)C(=O)N1)[C@@H](C)O)C(C)C)C(=O)N[C@@H](CCCCNC(=O)COCCOCCNC(=O)COCCOCCNC(=O)CC[C@H](NC(=O)CCCCCCCCCCCCCCCCCCC(=O)O)C(=O)O)C(=O)N[C@@H](CCC(N)=O)C(=O)N[C@@H](Cc1ccccc1)C(=O)N[C@H](C(=O)N[C@@H](CC(=O)O)C(=O)N[C@@H](CCCCN)C(=O)N[C@@H](CC(=O)O)C(=O)N[C@@H](CCCCN)C(=O)N[C@@H](CC(=O)O)C(=O)N[C@@H](CC(N)=O)C(=O)N[C@H](C(=O)N[C@@H](C)C(=O)N1CCC[C@H]1C(=O)N1CCC[C@H]1C(=O)N[C@H](C(=O)N[C@@H](CC(N)=O)C(=O)N[C@H](C(=O)NCC(=O)N[C@@H](CO)C(=O)N[C@@H](CC(N)=O)C(=O)NCC(=O)N1C[C@H](O)C[C@H]1C(N)=O)C(C)C)[C@@H](C)O)C(C)C)[C@@H](C)O [compound 136] (H-KCNTATCTVQRLAEQIK([AEEA-AEEA-γGlu-C20 diacid])QFTDKDKDNVAPPTNVGSNG[Hyp]-NH2; disulfide 2-7; N-terminus assumed)
0.008	> 5000	CC[C@H](C)[C@H](NC(=O)[C@H](CCC(N)=O)NC(=O)[C@H](Cc1c[nH]cn1)NC(=O)[C@H](C)NC(=O)[C@H](CC(C)C)NC(=O)[C@H](CCCNC(=N)N)NC(=O)[C@H](CCC(N)=O)NC(=O)[C@@H](NC(=O)[C@@H](NC(=O)[C@@H]1CSSC[C@H](NC(=O)[C@@H](N)CCCCN)C(=O)N[C@@H](CC(N)=O)C(=O)N[C@@H]([C@@H](C)O)C(=O)N[C@@H](C)C(=O)N[C@@H]([C@@H](C)O)C(=O)N1)[C@@H](C)O)C(C)C)C(=O)N[C@@H](Cc1ccc(O)cc1)C(=O)N[C@@H](CCC(N)=O)C(=O)N[C@@H](Cc1ccccc1)C(=O)N[C@H](C(=O)N[C@@H](CC(=O)O)C(=O)N[C@@H](CCCCN)C(=O)N[C@@H](CC(=O)O)C(=O)N[C@@H](CCCCN)C(=O)N[C@@H](CC(=O)O)C(=O)N[C@@H](CC(N)=O)C(=O)N[C@H](C(=O)N1CCC[C@H]1C(=O)N1CCC[C@H]1C(=O)N[C@H](C(=O)N[C@@H](CC(N)=O)C(=O)N[C@H](C(=O)NCC(=O)N[C@@H](CO)C(=O)N[C@@H](CC(N)=O)C(=O)NCC(=O)N1C[C@H](O)C[C@H]1C(N)=O)C(C)C)[C@@H](C)O)C(C)C)[C@@H](C)O [compound 30] (H-KCNTATCTVQRLAHQIYQFTDKDKDNVPPTNVGSNG[Hyp]-NH2; disulfide 2-7; N-terminus assumed)
0.006	> 5000	CC[C@H](C)[C@H](NC(=O)[C@H](CCC(N)=O)NC(=O)[C@H](CC(=O)O)NC(=O)[C@H](C)NC(=O)[C@H](CC(C)C)NC(=O)[C@H](CCCNC(=N)N)NC(=O)[C@H](CC(N)=O)NC(=O)[C@@H](NC(=O)[C@@H](NC(=O)[C@@H]1CSSC[C@H](NC(=O)[C@@H](N)CCCNC(=N)N)C(=O)N[C@@H](CC(N)=O)C(=O)N[C@@H](C)C(=O)N[C@@H](CO)C(=O)N[C@@H]([C@@H](C)O)C(=O)N1)[C@@H](C)O)C(C)C)C(=O)N[C@H](C(=O)N[C@@H](CCC(N)=O)C(=O)N[C@@H](Cc1ccccc1)C(=O)N[C@@H](CO)C(=O)N[C@@H](CC(N)=O)C(=O)N[C@@H](CCCCN)C(=O)N[C@@H](CC(=O)O)C(=O)N[C@@H](CCCCN)C(=O)N[C@@H](C)C(=O)N[C@@H](CCC(N)=O)C(=O)N[C@H](C(=O)N[C@@H](CO)C(=O)N1CCC[C@H]1C(=O)N1CCC[C@H]1C(=O)N[C@H](C(=O)N[C@@H](CCC(=O)O)C(=O)N[C@H](C(=O)NCC(=O)N1CCC[C@H]1C(=O)N[C@@H](CC(N)=O)C(=O)N[C@@H](CO)C(=O)N1C[C@H](O)C[C@H]1C(N)=O)C(C)C)[C@@H](C)O)C(C)C)[C@@H](C)O [compound 9] (H-RCNASTCTVNRLADQITQFSNKDKAQVSPPTEVGPNS[Hyp]-NH2; disulfide 2-7; N-terminus assumed)
